pIC50: −log10 of the molar value. Like-named read-outs stand apart in the source and are kept apart here.
Experiments:
[1] = biological target: recombinant human KRAS wild type (SOS1-mediated nucleotide exchange) (Homo sapiens (Human), UniProt P01116); assay: KRAS biochemical assay, BODIPY-GDP exchange TR-FRET (WT-GDP HTRF)
[2] = biological target: recombinant human mutant KRas G12V (SOS1-mediated nucleotide exchange) (Homo sapiens (Human), UniProt P01116, G12V); assay: KRAS biochemical assay, BODIPY-GDP exchange TR-FRET (G12V-GDP HTRF)
Chain of recombinant human mutant KRas G12V (SOS1-mediated nucleotide exchange) (P01116-2 other isoform, or with tags, fused parts or gaps G12V): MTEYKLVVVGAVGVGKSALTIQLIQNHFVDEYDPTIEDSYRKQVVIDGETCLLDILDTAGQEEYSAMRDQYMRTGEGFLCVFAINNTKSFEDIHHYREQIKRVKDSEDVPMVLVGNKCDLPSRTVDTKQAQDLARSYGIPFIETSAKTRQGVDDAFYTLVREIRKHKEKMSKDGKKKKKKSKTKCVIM

SW620 cells = assay: SW620 3D proliferation assay (CellTiter-Glo); type: cell-based; details: SW620, 3D culture, 7 days, read-out: SW620 CTG IC50
Method in brief: (§1)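 IC50 values were fitted with a 4-parameter logistic to luminescent ATP signal (CellTiter-Glo 3D) after 7-day compound exposure. Seeding was 3000 (96-well) or 1000 (384-well) cells/well in low-attachment plates with RPMI-1640, 10% FBS, 2 mM L-glutamine.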

H1975 cells = assay: H1975 CTG proliferation assay; type: cell-based
HPAC cells = assay: HPAC 3D proliferation assay (CellTiter-Glo); type: cell-based; details: 3D culture, 7 days, read-out: HPAC CTG IC50
Method in brief: as §1

SW480 cells = assay: SW480 CTG proliferation assay; type: cell-based; details: Homo sapiens
SW620 PERK = SW620 PERK assay; type: cell-based
[3] = Homo sapiens, NCI-H1975, H1975, CTG
[4] = Homo sapiens, SW-620, SW620, PERK

Chain of recombinant human KRAS wild type (SOS1-mediated nucleotide exchange) (P01116-2 other isoform, or with tags, fused parts or gaps): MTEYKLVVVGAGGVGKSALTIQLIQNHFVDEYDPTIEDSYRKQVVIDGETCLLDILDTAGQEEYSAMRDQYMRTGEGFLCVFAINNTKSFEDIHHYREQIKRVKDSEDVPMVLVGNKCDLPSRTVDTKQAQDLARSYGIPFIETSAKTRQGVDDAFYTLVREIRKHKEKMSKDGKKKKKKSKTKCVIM

| SMILES | pIC50 [1] | pIC50 [2] | pIC50 (SW620 cells; Homo sapiens, SW-620, 168 h) | pIC50 (H1975 cells; [3]) | pIC50 (SW480 cells) | pIC50 (SW620 PERK; [4]) | pIC50 (SW620 cells) | pIC50 (H1975 cells; H1975, CTG) | pIC50 (SW620 PERK; SW620, PERK) | pIC50 (HPAC cells; Homo sapiens, 168 h) | pIC50 (HPAC cells) |
| --- | --- | --- | --- | --- | --- | --- | --- | --- | --- | --- | --- |
| Cc1c(F)c(N)cc(-c2nc3c4c(nc(OC[C@@]56CCCN5C[C@H](F)C6)nc4c2F)N([C@H](C)c2cccnc2N)CCO3)c1C(F)(F)F [Example 5, 3-((R)-1-(5-(5-amino-4-fluoro-3-methyl-2-(trifluoromethyl)phenyl)-4-fluoro-2-(((2R,7aS)-2-fluorotetrahydro-1H-pyrrolizin-7a(5H)-yl)methoxy)-8,9-dihydro-10H-7-oxa-1,3,6,10-tetraazacyclohepta[de]naphthalen-10-yl)ethyl)pyridin-2-amine] | 10.28 | 10.35 | 8.94 | 7.89 | 8.24 | 9.14 | – | – | – | 8.30 | – |
| Cc1nc(N)cc(-c2nc3c4c(nc(OC[C@@]56CCCN5C[C@H](F)C6)nc4c2F)N([C@H](C)c2cccnc2N)CCO3)c1C(F)(F)F [Example 14, 4-(10-((R)-1-(2-aminopyridin-3-yl)ethyl)-4-fluoro-2-(((2R,7aS)-2-fluorotetrahydro-1H-pyrrolizin-7a(5H)-yl)methoxy)-9,10-dihydro-8H-7-oxa-1,3,6,10-tetraazacyclohepta[de]naphthalen-5-yl)-6-methyl-5-(trifluoromethyl)pyridin-2-amine] | 9.36 | 9.77 | 7.86 | 6.94 | 6.89 | 8.58 | – | – | – | 7.12 | – |
| Cc1cc(N)c(Cl)c(-c2nc3c4c(nc(OC[C@@]56CCCN5C[C@H](F)C6)nc4c2F)N([C@H](C)c2cccnc2N)CCO3)c1C(F)(F)F (single isomer, unassigned) [Example 21b] | 10.15 | 10.30 | – | – | 8.62 | – | 9.00 | 8.59 | 9.26 | – | 8.35 |
| C#Cc1c(F)ccc2cc(O)cc(-c3nc4c5c(nc(OC[C@@]67CCCN6C[C@H](F)C7)nc5c3F)N([C@H](C)c3cccnc3N)CCO4)c12 [Example 2, 4-(10-((R)-1-(2-aminopyridin-3-yl)ethyl)-4-fluoro-2-(((2R,7aS)-2-fluorotetrahydro-1H-pyrrolizin-7a(5H)-yl)methoxy)-9,10-dihydro-8H-7-oxa-1,3,6,10-tetraazacyclohepta[de]naphthalen-5-yl)-5-ethynyl-6-fluoronaphthalen-2-ol] | 10.17 | 10.10 | 8.62 | 8.59 | 8.54 | 8.89 | – | – | – | 7.68 | – |
| Cc1cc(N)nc(-c2nc3c4c(nc(OC[C@@]56CCCN5C[C@H](F)C6)nc4c2F)N([C@H](C)c2cccnc2N)CCO3)c1C(F)(F)F [Example 6, 6-(10-((R)-1-(2-aminopyridin-3-yl)ethyl)-4-fluoro-2-(((2R,7aS)-2-fluorotetrahydro-1H-pyrrolizin-7a(5H)-yl)methoxy)-9,10-dihydro-8H-7-oxa-1,3,6,10-tetraazacyclohepta[de]naphthalen-5-yl)-4-methyl-5-(trifluoromethyl)pyridin-2-amine] | 9.67 | 9.68 | 7.87 | 8.14 | 6.92 | 8.11 | – | – | – | 7.36 | – |
| Cc1cc(N)c(F)c(-c2nc3c4c(nc(OC[C@@]56CCCN5C[C@]5(CC5(F)F)C6)nc4c2F)N([C@H](C)c2nccnc2N)CCO3)c1C(F)(F)F [Example 609] | 9.38 | 9.68 | 8.24 | 4.84 | 7.24 | 8.25 | – | – | – | 7.47 | – |
| Cc1c(F)c(N)nc(-c2nc3c4c(nc(OC[C@@]56CCCN5C[C@H](F)C6)nc4c2F)N([C@H](C)c2cccnc2N)CCO3)c1C(F)(F)F [Example 604, 6-(10-((R)-1-(2-aminopyridin-3-yl)ethyl)-4-fluoro-2-(((2R,7aS)-2-fluorotetrahydro-1H-pyrrolizin-7a(5H)-yl)methoxy)-9,10-dihydro-8H-7-oxa-1,3,6,10-tetraazacyclohepta[de]naphthalen-5-yl)-3-fluoro-4-methyl-5-(trifluoromethyl)pyridin-2-amine] | 9.65 | 10.00 | 8.27 | 6.55 | < 6.70 | 8.53 | – | – | – | 7.58 | – |
| C#Cc1cccc2cc(O)cc(-c3nc4c5c(nc(OC[C@@]67CCCN6C[C@H](F)C7)nc5c3F)N([C@H](C)c3cccnc3N)CCO4)c12 [Example 7, 4-(10-((R)-1-(2-aminopyridin-3-yl)ethyl)-4-fluoro-2-(((2R,7aS)-2-fluorotetrahydro-1H-pyrrolizin-7a(5H)-yl)methoxy)-9,10-dihydro-8H-7-oxa-1,3,6,10-tetraazacyclohepta[de]naphthalen-5-yl)-5-ethynyinaphthalen-2-ol] | 9.92 | 10.40 | 8.71 | 8.59 | 7.92 | 8.95 | – | – | – | 7.71 | – |

More lines, main results first:

| pIC50 [1] | pIC50 [2] | pIC50 (SW620 cells; Homo sapiens, SW-620, 168 h) | pIC50 (H1975 cells; [3]) | pIC50 (SW480 cells) | pIC50 (SW620 PERK; [4]) | pIC50 (SW620 cells) | pIC50 (H1975 cells; H1975, CTG) | pIC50 (SW620 PERK; SW620, PERK) | SMILES | pIC50 (HPAC cells; Homo sapiens, 168 h) | pIC50 (HPAC cells) |
| --- | --- | --- | --- | --- | --- | --- | --- | --- | --- | --- | --- |
| 9.75 | 10.16 | 8.77 | 6.75 | 7.70 | 8.88 | – | – | – | Cc1c(F)c(N)c(F)c(-c2nc3c4c(nc(OC[C@@]56CCCN5C[C@H](F)C6)nc4c2Cl)N([C@H](C)c2cccnc2N)CCO3)c1C(F)(F)F (atropisomer, axis not shown; (aS)) [Example 629a, 3-((R)-1-((R)-5-(3-amino-2,4-difluoro-5-methyl-6-(trifluoromethyl)phenyl)-4-chloro-2-(((2R,7aS)-2-fluorotetrahydro-1H-pyrrolizin-7a(5H)-yl)methoxy)-8,9-dihydro-10H-7-oxa-1,3,6,10-tetraazacyclohepta[de]naphthalen-10-yl)ethyl)pyridin-2-amine] | 7.82 | – |
| 9.71 | 10.05 | 8.07 | 8.59 | < 6.70 | 8.33 | – | – | – | Cc1c(F)c(N)cc(-c2nc3c4c(nc(OC[C@@]56CCCN5C[C@]5(CC5(F)F)C6)nc4c2F)N([C@H](C)c2cncnc2N)CCO3)c1C(F)(F)F [Example 616] | 7.30 | – |
| 9.76 | 9.85 | 8.72 | 6.02 | 7.74 | 8.69 | – | – | – | Cc1nc(N)cc(-c2nc3c4c(nc(OC[C@@]56CCCN5C[C@]5(CC5(F)F)C6)nc4c2F)N([C@H](C)c2cccnc2N)CCO3)c1C(F)(F)F [Example 615] | 7.91 | – |
| 9.49 | 9.68 | 8.45 | 8.60 | < 6.70 | 8.67 | – | – | – | Cc1cc(N)nc(-c2nc3c4c(nc(OC[C@@]56CCCN5C[C@]5(CC5(F)F)C6)nc4c2F)N([C@H](C)c2cccnc2N)CCO3)c1C(F)(F)F [Example 635] | 7.93 | – |
